Test results as given in ChEMBL document CHEMBL1770132, “The discovery of high affinity agonists of GPR109a with reduced serum shift and improved ADME properties” (Bioorg Med Chem Lett, 2011).

Tests used:
Format in all cases: ADME, organism-based
[1] = Plasma clearance in C57BL/6 mouse
[2] = Bioavailability in C57BL/6 mouse at 1 mg/kg, iv and 2 mg/kg, po; conditions: in vivo
[3] = Half life in plasma of C57BL/6 mouse
[4] = Plasma clearance in Sprague-Dawley rat
[5] = Half life in Sprague-Dawley rat; conditions: in vivo
[6] = Bioavailability in Sprague-Dawley rat at 1 mg/kg, iv and 2 mg/kg, po; conditions: in vivo
[7] = Half life in plasma of C57BL/6 mouse at 1 mg/kg, iv and 2 mg/kg, po

SMILES	clearance [1] [mL/min/kg]	bioavailability [2] [%]	half-life [3] [h]	clearance [4] [mL/min/kg]	half-life [5] [h]	bioavailability [6] [%]	half-life [7] [h]
N[C@@H](Cc1nc(-c2ccc(O)cn2)no1)C(=O)NC1=C(C(=O)O)CCCC1	2.5	9	4.5	0.7	2.3	2	–
O=C(CCc1ccc(-c2ccc(O)cc2)cc1)Nc1ccccc1C(=O)O	–	–	–	–	–	–	2.4
O=C(CCc1nc(-c2ccc(O)cn2)no1)NC1=C(C(=O)O)CCCC1	–	–	1.4	1	2.2	8.1	–

Results, then the compound that gave them:

clearance [1] [mL/min/kg]	bioavailability [2] [%]	half-life [3] [h]	clearance [4] [mL/min/kg]	half-life [5] [h]	bioavailability [6] [%]	half-life [7] [h]	SMILES
9.22	7.5	2.64	–	–	–	–	C[C@@H]1CCC(C(=O)O)=C(NC(=O)[C@@H](N)Cc2nc(-c3ccc(O)cn3)no2)C1
3.3	54	4.7	–	–	–	–	C[C@@H]1CCC(C(=O)O)=C(NC(=O)CCc2nc(-c3ccc(F)cn3)no2)C1
1.7	100	5.6	0.7	5.5	81	–	C[C@@H]1CCC(C(=O)O)=C(NC(=O)[C@@H](N)Cc2nc(-c3ccc(F)cn3)no2)C1
